Each block holds one compound with its values, some of them ahead of it.
Legend:
[1] = test system: SRS-A-induced contraction of guinea pig ileum; test: Inhibition of SRS-A-induced contraction of guinea pig ileum; settings: submaximal concentration of SRS-A (derived from guinea-pig lung), 20 min incubation, read-out: Anti-SRS-A GP ileum IC50
Description: (§1) Initiation of SRS-A- and LTD4 -Induced Contraction of Guinea Pig Ileum and Trachea
(§2) Method: Male Hartley guinea-pigs, weighing 500 to 700 g were killed by a blow on the head. The ileum and tracheal strips prepared according to the method of Constantine (1965) were suspended with 1.0 g tension in an organ bath containing 10 ml of Tyrode's solution equilibrated with a mixture of 95% O2 and 5% CO2 at 37° C. The tissues were equilibrated for 60 min.; during this period the Tyrode solution was replaced every 15 min. and the loading tension was adjusted to 1.0 g. The developed tension of the tissues was measured isometrically with a strain gauge transducer, and recorded on a Recticorder. Both the contractile response of the ileum to submaximal concentration of SRS-A (derived from guinea-pig lung) and the tracheal response to 10^-8 M LTD4 were measured in the absence and then the presence of various concentrations of test compounds. The incubation time of the compounds was 20 min.

[2] = test system: LTD4-induced contraction of guinea pig trachea; test: Inhibition of LTD4-induced contraction of guinea pig trachea; settings: 10^-8 M LTD4, 20 min incubation, read-out: Anti-LTD4 GP trachea IC50
Description: as §1, §2

[3] = test system: SRS-A-mediated anaphylactic asthma; test: Inhibition of SRS-A-mediated anaphylactic asthma in conscious guinea-pigs; type: in vivo, guinea pig; settings: for Time to onset of cough / Mortality: 30 min before antigen challenge; for Time to onset of cough: N=8
Description: Inhibition of SRS-A-Mediated Anaphylactic Asthma in Conscious Guinea-Pigs
Method: Male Harley guinea-pigs, weighing 370 to 410 g were passively sensitized by intravenously injecting 1 ml/kg of rabbit […] anti-bovine serum albumin serum (PHA titer: 20480). Twenty-four hours after the sensitization, indomethacine (2 mg/kg), mepyramine (2 mg/kg) and propranolol (0.3 mg/kg) were injected into the saphenous vein 20, 5 and 5 min., respectively, prior to the antigen challenge. Then, animals were placed in an 11 liter chamber connected to a glass nebulizer, and 1% solution of bovin serum albumin was sprayed into the chamber for 30 seconds. The animals were exposed to the antigen aerosol for 2 min. and observed for 15 min. after challenge. The time from the start of inhalation to the onset of cough and the mortality were recorded. Test compounds were orally administered 30 min. before antigen challenge.
^a) Animals were pretreated with mepyramine (2 mg/kg i.v.),
propranolol (0.3 mg/kg i.v.) and indomethacine (2 mg/kg i.v.) 5, 5 and 20
min., respectively, prior to antigen challenge.
^b) Test compound was orally administered 30 min. before antigen

mice = test: Toxicity, oral administration to mice; type: in vivo; settings: orally
rats = test: Toxicity, oral administration to rats; type: in vivo; settings: orally
SRS-A = settings: cited from earlier work
[4] = cited from earlier work

SMILES: CCCc1c(OCCCSc2nnc(SCC(=O)O)s2)ccc(C(C)=O)c1O [Example 21, [[5-[[3-(4-acetyl-3-hydroxy-2-propylphenoxy)propyl]thio]-1,3,4-thiadiazol-2-yl]thio]acetic acid]
IC50 [1]: 60 nM
IC50 [2]: 130 nM
Inhibition of SRS-A-mediated anaphylactic asthma (in words) ([3]; 3 mg/kg p.o.): tended to inhibit the SRS-A-mediated anaphylactic asthma in conscious guinea-pigs, but this effect was not significant
Time to onset of cough ([3]; 3 mg/kg p.o., control 293 ± 22): 377 ± 51 s
Mortality ([3]; 3 mg/kg p.o., control 6/8): 5/8
Inhibition of SRS-A-mediated anaphylactic asthma (in words) ([3]; 10 mg/kg p.o. or higher): significantly inhibited the SRS-A-mediated anaphylactic asthma
Time to onset of cough ([3]; 10 mg/kg p.o., control 281 ± 19, * significant vs control): 397 ± 42 s
Mortality ([3]; 10 mg/kg p.o., control 7/8, * significant vs control): 2/8
Time to onset of cough ([3]; 30 mg/kg p.o., control 281 ± 11, ** p < 0.01 vs control): 457 ± 42 s
Mortality ([3]; 30 mg/kg p.o., control 7/8, * significant vs control): 2/8
minimum fatal dose (mice): more than 1000 mg/kg
minimum fatal dose (rats): more than 1000 mg/kg

IC50 [1]: 130 nM
SMILES: CCCc1c(OCCCSc2nnc(SC(C)CCC(=O)O)s2)ccc(C(C)=O)c1O (stereo not shown) [Example 44, 4-[[5-[[3-(4-Acetyl-3-hydroxy-2-propylphenoxy)propyl]thio]-1,3,4-thiadizol-2-yl]thio]valeric acid]

IC50 [1]: 38 nM
IC50 [2]: 230 nM
SMILES: CCCc1c(OCCCSc2nnc(SCCCC(=O)O)s2)ccc(C(C)=O)c1O [Example 38, 4-[[5-[[3-(4-Acetyl-3-hydroxy-2-propylphenoxy)propyl]thio]-1,3,4-thiadiazol-2-yl]thio]butyric acid]

IC50 [1]: 150 nM
SMILES: CCCc1c(OCCCCSc2nnc(SCC(=O)O)s2)ccc(C(C)=O)c1O [Example 23, [[5-[[4-(4-acetyl-3-hydroxy-2-propylphenoxy)butyl]thio]-1,3,4-thiadiazol-2-yl]thio]acetic acid]

IC50 [1]: 110 nM
SMILES: CCCc1c(OCCCSc2nnc(S)s2)ccc(C(C)=O)c1O [Example 7, 2-Hydroxy-4-[[3-(5-mercapto-1,3,4-thiadiazol-2-yl)thio]propoxy]-3-propylacetophenone]

IC50 [1]: 190 nM
SMILES: CCCc1c(OCCCSc2snc(O)c2C(=O)O)ccc(C(C)=O)c1O [Example 27, 5-[[3-(4-acetyl-3-hydroxy-2-propylphenoxy)propyl]thio]-3-hydroxy-4-isothiazol carboxylic acid]

IC50 [1]: 140 nM
SMILES: CCCc1c(OCCCSc2nnc(NC(=O)C(=O)O)s2)ccc(C(C)=O)c1O [Example 36, N-[5-[[3-(4-Acetyl-3-hydroxy-2-propylphenoxy)propyl]thio]-1,3,4-thiadizol-2-yl]oxamic acid]

IC50 [1]: 130 nM
SMILES: CCCc1c(OCCCSc2nnc(SCCCCCC(=O)O)s2)ccc(C(C)=O)c1O [Example 42, 6-[[5-[[3-(4-Acetyl-3-hydroxy-2-propylphenoxy)propyl]thio]-1,3,4-thiadizol-2-yl]thio]hexanoic acid]

IC50 [1]: 190 nM
SMILES: CCCc1c(OCCCCCSc2nnc(SCC(=O)O)s2)ccc(C(C)=O)c1O [Example 24, [[5-[[5-(4-Acetyl-3-hydroxy-2-propylphenoxy)pentyl]thio]-1,3,4-thiadiazol-2-yl]thio]acetic acid]

IC50 [1]: 64 nM
SMILES: CCCc1c(OCCCSc2nnc(SCCCCC(=O)O)s2)ccc(C(C)=O)c1O [Example 41, 5-[[5-[[3-(4-Acetyl-3-hydroxy-2-propylphenoxy)propyl]thio]-1,3,4-thiadiazol-2-yl]thio]valeric acid]

IC50 [1]: 52 nM
SMILES: CCCc1c(OCCCSc2cc(C(=O)O)nc(SC)n2)ccc(C(C)=O)c1O [Example 37, 6-[[3-(4-Acetyl-3-hydroxy-2-propylphenoxy)propyl]thio]-2-methylthio-4-pyrimidinecarboxylic acid]

IC50 [1]: 120 nM
SMILES: CCCc1c(OCCCSc2nnc(SCCC(=O)O)s2)ccc(C(C)=O)c1O [Example 26]

IC50 [1]: 91 nM
SMILES: CCCc1c(OCCCSc2nnc(NC(=O)CC(=O)O)s2)ccc(C(C)=O)c1O [Example 33, 3-[[5-[[3-(4-acetyl-3-hydroxy-2-propylphenoxy)propyl]thio]-1,3,4-thiadiazol-2-yl]amino]-3-oxopropionic acid]

IC50 [1]: 180 nM
SMILES: CCCc1c(OCCCSc2nnc(N)s2)ccc(C(C)=O)c1O [Example 2, 4-[3-[(5-amino-1,3,4-thiadizol-2-yl)thio]propoxy]-2-hydroxy-3-propylacetophenone]

IC50 [1]: 160 nM
IC50 [2]: 420 nM
SMILES: CCCc1c(OCCCSc2nnc(SCC(=O)N(C)O)s2)ccc(C(C)=O)c1O [Example 51, 2-[[5-[[3-(4-acetyl-3-hydroxy-2-propylphenoxy)propyl]thio]-1,3,4-thiadiazol-2-yl]thio]-N-hydroxy-N-methylacetamide]

SMILES: CCCc1c(OCC(O)COc2ccc3c(=O)cc(C(=O)O)oc3c2CCC)ccc(C(C)=O)c1O (stereo not shown) [FPL 55712]
anti-SRS-A activity in isolated tissues (SRS-A): potent anti-SRS-A activity in isolated tissues
biological half life ([4]; in vivo): very short
absorption by oral route ([4]; oral route): very poor
